Four compounds from doi:10.1101/2021.06.18.449075v2, “Understanding the mechanism of monoADP ribosylation in OsSRT1 and its linkage to DNA repair system under stress conditions” (biorxiv, 2021) can be followed below.

For experiment [1], the target named is T1, OsSRT1 (Oryza sativa, UniProt B8ARK7).
T1 construct: gene SRT1; OsSRT1 gene (483 aa) in pET30a (BamHI/EcoRI), His-tagged, E. coli BL21(DE3), HisTrap purified; tag removal not mentioned
T1 sequence (B8ARK7 1-483): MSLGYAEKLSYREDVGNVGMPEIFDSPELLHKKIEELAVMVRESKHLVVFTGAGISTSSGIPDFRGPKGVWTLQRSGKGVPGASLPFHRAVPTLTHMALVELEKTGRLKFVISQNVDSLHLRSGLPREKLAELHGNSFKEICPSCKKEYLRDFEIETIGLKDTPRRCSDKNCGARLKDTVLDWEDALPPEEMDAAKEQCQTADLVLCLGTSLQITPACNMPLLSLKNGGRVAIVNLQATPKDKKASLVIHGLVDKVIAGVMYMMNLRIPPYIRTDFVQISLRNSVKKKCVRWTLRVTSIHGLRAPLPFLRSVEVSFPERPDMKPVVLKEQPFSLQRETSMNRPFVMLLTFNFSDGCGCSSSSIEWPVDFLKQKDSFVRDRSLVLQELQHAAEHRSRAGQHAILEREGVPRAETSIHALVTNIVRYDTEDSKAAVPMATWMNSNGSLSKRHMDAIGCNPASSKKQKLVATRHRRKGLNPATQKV
Description: auto-ADP-ribosylation, anti-biotin western blot. Format: biochemical. (In western blotting, separated proteins are transferred to a membrane and probed.)

In experiment [2] the target is T1, OsSRT1. In words: auto-ADP-ribosylation, anti-biotin dot blot, Michaelis-Menten fit. Format: biochemical. Conditions: 6 nM OsSRT1, 0-100 µM Bio-NAD+, pH 7.5, 25°C; auto-ADPr without H3; labelled compound.

Like-named read-outs stand apart in the source and are kept apart here.

As for `Nc1ncnc2c1ncn2[C@@H]1O[C@H](COP(=O)(O)OP(=O)(O)OC[C@H]2OC(O)[C@H](O)[C@@H]2O)[C@@H](O)[C@H]1O` (stereo partly shown) [ADP-ribose], the IC50 (usually the point on the concentration scale where inhibition reaches its midpoint) on OsSRT1 [1] (auto-ADPr with Bio-NAD+, standard buffer 50 mM Tris pH 7.5, 150 mM NaCl, 10 mM DTT, 75 μM NAD+, 40 μM Bio-NAD+, 25°C, 1 h, product inhibition) came to 18 ± 4 µM.

For `NC(=O)c1cccnc1` [nicotinamide], on OsSRT1 [1], the IC50 came to 26 ± 2 µM. On the same count and under the same terms, with `O=C(O)c1cccnc1` [nicotinic acid] the figure was 32 ± 4 µM. For the compound Bio-NAD^+, the Michaelis-Menten constant (Km) (as a rule, the concentration of substrate that gives half-maximal velocity) at OsSRT1 [2] came to 37.4 ± 4 µM.
